Measurements reported in ChEMBL document CHEMBL1144330, “Novel pyrazinone mono-amides as potent and reversible caspase-3 inhibitors” (Bioorg Med Chem Lett, 2005).

Tests used:
[1] = target: Caspase-8 (Homo sapiens, UniProt Q14790); assay: Inhibitory concentration against recombinant human caspase-8 […]
[2] = target: T1, Caspase-3 (Homo sapiens, UniProt P42574); assay: Inhibitory concentration against recombinant human caspase-3 in neuronal precursor (NT2) cells
T1 sequence (P42574 whole entry): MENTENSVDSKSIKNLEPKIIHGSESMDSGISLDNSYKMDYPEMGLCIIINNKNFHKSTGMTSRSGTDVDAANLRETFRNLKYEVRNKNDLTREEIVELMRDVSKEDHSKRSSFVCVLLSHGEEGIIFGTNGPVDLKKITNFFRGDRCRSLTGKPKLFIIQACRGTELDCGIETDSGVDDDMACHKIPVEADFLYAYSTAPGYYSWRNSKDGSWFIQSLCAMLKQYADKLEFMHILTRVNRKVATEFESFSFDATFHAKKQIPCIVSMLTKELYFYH

[3] = target: T2, Caspase-1 (Homo sapiens, UniProt P29466); assay: Inhibitory concentration against recombinant human caspase-1 in neuronal precursor (NT2) cells
T2 sequence (P29466 whole entry): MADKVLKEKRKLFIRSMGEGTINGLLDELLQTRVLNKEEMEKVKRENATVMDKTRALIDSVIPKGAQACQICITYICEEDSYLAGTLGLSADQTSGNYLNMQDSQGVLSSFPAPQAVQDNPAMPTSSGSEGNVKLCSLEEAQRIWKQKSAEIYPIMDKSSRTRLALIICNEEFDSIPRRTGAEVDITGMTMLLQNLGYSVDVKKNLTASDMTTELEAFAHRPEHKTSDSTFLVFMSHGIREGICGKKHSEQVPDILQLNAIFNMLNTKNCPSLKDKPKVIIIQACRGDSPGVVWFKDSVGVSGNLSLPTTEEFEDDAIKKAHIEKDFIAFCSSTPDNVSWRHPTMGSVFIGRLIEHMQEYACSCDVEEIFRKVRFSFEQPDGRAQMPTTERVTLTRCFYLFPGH

[4] = tested on: NT2; assay: Inhibitory concentration against camptothecin induced apoptosis in neuronal precursor (NT2) whole cells; format: functional, cell-based; conditions: Homo sapiens
[5] = target: T3, Caspase-7 (Homo sapiens, UniProt P55210); assay: Inhibitory concentration against recombinant human caspase-7 […]
T3 sequence (P55210 whole entry): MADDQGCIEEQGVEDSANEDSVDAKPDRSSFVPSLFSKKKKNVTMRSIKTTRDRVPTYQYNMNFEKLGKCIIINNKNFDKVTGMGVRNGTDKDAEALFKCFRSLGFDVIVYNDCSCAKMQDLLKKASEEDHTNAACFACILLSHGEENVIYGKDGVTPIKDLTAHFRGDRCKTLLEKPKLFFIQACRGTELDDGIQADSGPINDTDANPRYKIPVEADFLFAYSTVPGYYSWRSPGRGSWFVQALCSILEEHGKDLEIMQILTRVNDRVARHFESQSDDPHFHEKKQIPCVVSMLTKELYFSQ

Chain of Caspase-8 (Q14790 217-374 limits assumed): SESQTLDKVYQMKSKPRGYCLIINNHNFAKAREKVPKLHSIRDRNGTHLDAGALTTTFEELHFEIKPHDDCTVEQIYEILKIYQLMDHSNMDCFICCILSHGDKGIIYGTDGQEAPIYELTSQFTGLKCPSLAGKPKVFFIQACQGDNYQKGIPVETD
Chain of Caspase-8 (Q14790 385-479 limits assumed): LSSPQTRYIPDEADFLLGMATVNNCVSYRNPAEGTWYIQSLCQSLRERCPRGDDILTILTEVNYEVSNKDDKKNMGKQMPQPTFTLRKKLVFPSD

SMILES	IC50 [1] [nM]	IC50 [2] [nM]	IC50 [3] [nM]	IC50 [4] [nM]	IC50 [5] [nM]
CCC(C(=O)N[C@@H](CC(=O)O)C(=O)CNCN(C)CC)n1ccnc(NCc2nonc2C)c1=O (stereo not given in full)	> 10000	26	56	1530	540
CCCCCCN(C)CNCC(=O)[C@H](CC(=O)O)NC(=O)C(CC)n1ccnc(NCc2nonc2C)c1=O (stereo not given in full)	> 10000	11	28	130	140
CCC(C(=O)N[C@H](C=O)CC(=O)O)n1ccnc(NCc2nonc2C)c1=O (stereo not given in full)	990	78	150	3560	1000
CCC(C(=O)N[C@@H](CC(=O)O)C(=O)CNCN1CCc2ccccc2C1)n1ccnc(NCc2nonc2C)c1=O (stereo not given in full)	7380	13	13	1250	83
CCC(C(=O)N[C@@H](CC(=O)O)C(=O)CSCc1ccccc1)n1ccnc(NCCc2nc(C)no2)c1=O (stereo not given in full)	9100	80	900	15300	> 10000
CCC(C(=O)N[C@@H](CC(=O)O)C(=O)CSCc1ccccc1)n1ccnc(NCc2nc(C)no2)c1=O (stereo not given in full)	6420	48	670	5330	4680
CCCCCCN(C)CNCC(=O)[C@H](CC(=O)O)NC(=O)C(CC)n1cc(C(C)(C)C)nc(NCc2nonc2C)c1=O (stereo not given in full)	6480	6	67	21	42
CCC(C(=O)N[C@@H](CC(=O)O)C(=O)CSCc1ccccc1)n1ccnc(NCCCc2nc(C)no2)c1=O (stereo not given in full)	> 10000	53	1700	7100	2600
CCCCCCN(C)CNCC(=O)[C@H](CC(=O)O)NC(=O)C(CC)n1cc(C(C)(CC)CC)nc(NCc2nonc2C)c1=O (stereo not given in full)	> 10000	16	110	25	87
CCC(C(=O)N[C@@H](CC(=O)O)C(=O)CSCc1ccccc1)n1ccnc(NCc2ccon2)c1=O (stereo not given in full)	2900	46	400	8560	5170
CCC(C(=O)N[C@@H](CC(=O)O)C(=O)CSCc1ccccc1)n1ccnc(NCC2COc3ccccc3O2)c1=O (stereo not given in full)	8220	140	87	30000	3280
CCC(C(=O)N[C@@H](CC(=O)O)C(=O)CNCN1Cc2ccccc2C1)n1ccnc(NCc2nonc2C)c1=O (stereo not given in full)	4290	14	8.7	1520	130
CCCCCCN(C)CNCC(=O)[C@H](CC(=O)O)NC(=O)C(CC)n1cc(CC)nc(NCc2nonc2C)c1=O (stereo not given in full)	9540	6	25	78	600
CCC(C(=O)N[C@@H](CC(=O)O)C(=O)CNCN1CCCC1)n1ccnc(NCc2nonc2C)c1=O (stereo not given in full)	6220	33	290	840	410
COc1ccc(S(C)(=O)=O)cc1CC(=O)N[C@H](C(=O)N[C@@H](CC(=O)O)C(=O)CSCc1ccccc1)C(C)C	490	5	1600	1000	120
CCC(C(=O)N[C@@H](CC(=O)O)C(=O)CSCc1ccccc1)n1ccnc(NCc2nonc2C)c1=O (stereo not given in full)	2460	7.9	220	1390	730
CCC(C(=O)N[C@@H](CC(=O)O)C(=O)CNCN1CCCCC1)n1cc(C(C)(C)C)nc(NCc2nonc2C)c1=O (stereo not given in full)	> 10000	21	620	290	130
CCC(C(=O)N[C@@H](CC(=O)O)C(=O)CNCN1CCC(Cc2ccccc2)CC1)n1ccnc(NCc2nonc2C)c1=O (stereo not given in full)	6020	56	47	1620	840
CC(=O)N[C@@H](CC(=O)O)C(=O)N[C@@H](CCC(=O)O)C(=O)N[C@H](C(=O)N[C@@H](CC(=O)O)C(=O)CCCc1ccccc1)C(C)C	16	0.8	310	30000	8
